Counter-ions that a name gives are not always drawn. Like-named read-outs stand apart in the source and are kept apart here.
Columns and labels:
patient [1] = details: for headache side-effect of PDE-5 inhibitor: Example 4: patient, erectile dysfunction secondary to medications, hemicrania continua; for headache side-effect of Viagra: Viagra alone
Method: A patient with a history of migraines had difficulty sustaining an erection for long periods of time.
A patient presented with erectile dysfunction secondary to medications and hemicrania continua (a largely refractory condition consisting of a constant one-sided headache). […] They were then prescribed cafergot, a combination of ergotamine and caffeine, at a dose of 1 mg and instructed to take this with the Clalis.
A patient experienced intermittent erectile dysfunction due to stress.

patient [2] = test: Patient case reports: alleviation of PDE-5 inhibitor headache by a co-administered agent; assay type: in vivo
[3] = Example 3: patient with history of migraines

## CN1CC(=O)N2[C@H](c3ccc4c(c3)OCO4)c3[nH]c4ccccc4c3C[C@@H]2C1=O [Clalis, tadalafil]
Patient [1]
  headache side-effect of PDE-5 inhibitor: exacerbated their headaches

## CC(C)Cc1ccc(C(C)C(=O)O)cc1 (centres unmarked) [Ibuprofen]
Patient [2]; [3]
  effect on Viagra headache: had no effect on the headache

## CNS(=O)(=O)Cc1ccc2[nH]cc(CCN(C)C)c2c1 [Imitrex, sumatriptan succinate]
Patient [2]; Example 5: Imitrex nasal spray at a dose of 25 mg
  relief of Viagra headache: alleviated the headache to the point where they could enjoy the sex

## N[C@@H](Cc1c[nH]c2ccccc12)C(=O)O [L-tryptophan]
Patient [2]; Example 6: L-tryptophan supplements the night before sexual intercourse
  prevention of Viagra headache: headache-free sex

## CN[C@@H](C)[C@@H](O)c1ccccc1 [Sudafed, pseudoephedrine hydrochloride]
Patient [2]; Example 1: one Sudafed tablet
  relief of Viagra headache: only minimal relief
Patient [2]; Example 1: two Sudafed tablets concomitantly with the Viagra
  relief of Viagra headache: headache was still present but had abated enough to where they could enjoy the experience
Patient [2]; Example 2: one Sudafed tablet with the Viagra
  prevention of Viagra headache: did not develop a headache
Patient [2]; Example 5: patient
  relief of Viagra headache: did not relieve the headache

## CCCc1nn(C)c2c(=O)[nH]c(-c3cc(S(=O)(=O)N4CCN(C)CC4)ccc3OCC)nc12 [Viagra, sildenafil citrate]
Patient [1]; Example 1: patient, erectile dysfunction secondary to low testosterone
  headache side-effect of Viagra: inability to use Viagra because of headaches
Patient [1]; Example 2: patient without erectile dysfunction
  headache side-effect of Viagra: bothered by headaches
Patient [1]; [3]
  headache side-effect of Viagra: intolerable headaches
Patient [1]
  headache side-effect of PDE-5 inhibitor: exacerbated their headaches
Patient [1]; Example 5: patient, intermittent erectile dysfunction due to stress
  headache side-effect of Viagra: could not tolerate the headache
Patient [1]; Example 6: patient with psychologic erectile dysfunction
  headache side-effect of Viagra: experiencing headaches
Patient [1]; Example 7: patient
  headache side-effect of Viagra: suffered from headaches

## CC(=O)Nc1ccc(O)cc1 [acetaminophen]
Patient [2]; [3]
  effect on Viagra headache: had no effect on the headache

## CC(C)(C)NCC(O)c1ccc(O)c(CO)c1 (centres unmarked) [albuterol]
Patient [2]; Example 7: two puffs of albuterol inhaler after developing a headache from the Viagra
  relief of Viagra headache: headache was alleviated

## Cn1c(=O)c2c(ncn2C)n(C)c1=O [caffeine]
Patient [2]; Example 1: caffeine administered prior to taking the Viagra
  relief of Viagra headache: did not help
Patient [2]; Example 5: patient
  relief of Viagra headache: did not relieve the headache

## CN(C)CCc1c[nH]c2ccc(Cn3cncn3)cc12 [rizatriptan]
Patient [2]; Example 3: 5 mg tablet of rizatriptan with the Viagra
  effect on Viagra headache: made the headache tolerable

Source: patent US20100104624A1, “COMBINATION THERAPY USING PHOSPHODIESTERASE INHIBITORS” (priority 2008, published 2010)
